Assay results reported in EP4745137A1 (Gluetacs Therapeutics (Shanghai) Co., Ltd., priority 2023, dated 2025).

Legend:
MV-4-11 = assay: Tumor cell proliferation inhibition (CellTiter-Meiluncell Luminescent Cell Viability Assay), MV-4-11; details: Homo sapiens, MV4-11, read-out: inhibitory activity (IC50, nM) against tumor cells proliferation, MV-4-11
Method: The tumor cells used herein were cultured in a cell culture medium listed in table 2 at 37°C in an incubator with 5% CO2. Prior to experimentation, all cell lines used were correctly identified by STR profiling, and tested negative for mycoplasma contamination using a mycoplasma detection kit through routine screenings.
On the following day, the test compounds of the present disclosure were subjected to serial dilution. […] Subsequently, 0.5 µL of the test compound dilution was transferred into the 96-well plate containing the cells, with each well containing 100 µL of cell culture medium. […] Into the 96-well plate, the diluted test compounds and corresponding detection reagents were added, resulting in final test compound concentrations of 500 nM and 10 nM, respectively.
After the cells were treated with the compounds of the present disclosure for a specified period (the treatment durations were shown in Table 3), the cell viability assay reagent was added to the culture medium according to the kit's instructions to determine cell viability. […] All controls were treated using the same procedure as the compounds of the present disclosure. The growth inhibition curves for the compounds of the present disclosure were plotted using Prism GraphPad software, and the IC50 values were calculated therefrom.

IKZF2 = biological target: T1, IKZF2 (Homo sapiens, UniProt Q96SW2+Q9UKS7); assay: Western-blot assay of substrate protein degradation in hPBMCs, IKZF2; assay type: cell-based; details: 24 hours of compound treatment, 50 nM and 500 nM tested (concentration behind the class not stated)
T1 construct: endogenous in cells; host or cells: hPBMCs (Milecell Biotechnologies)
T1 sequence (Q9UKS7 whole entry): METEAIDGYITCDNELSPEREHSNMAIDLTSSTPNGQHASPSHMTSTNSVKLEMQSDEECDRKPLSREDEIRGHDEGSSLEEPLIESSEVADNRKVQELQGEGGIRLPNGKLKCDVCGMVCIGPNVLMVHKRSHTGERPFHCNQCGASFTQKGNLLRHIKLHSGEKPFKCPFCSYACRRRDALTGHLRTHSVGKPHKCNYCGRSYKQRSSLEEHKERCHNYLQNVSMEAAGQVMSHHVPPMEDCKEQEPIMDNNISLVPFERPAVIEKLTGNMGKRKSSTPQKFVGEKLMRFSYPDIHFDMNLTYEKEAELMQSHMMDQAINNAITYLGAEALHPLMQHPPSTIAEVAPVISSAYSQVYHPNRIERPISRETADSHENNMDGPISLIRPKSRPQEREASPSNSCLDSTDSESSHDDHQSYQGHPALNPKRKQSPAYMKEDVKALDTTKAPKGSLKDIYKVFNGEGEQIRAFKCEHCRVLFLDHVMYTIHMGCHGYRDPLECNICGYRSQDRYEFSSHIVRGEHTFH
T1 sequence (Q96SW2 whole entry): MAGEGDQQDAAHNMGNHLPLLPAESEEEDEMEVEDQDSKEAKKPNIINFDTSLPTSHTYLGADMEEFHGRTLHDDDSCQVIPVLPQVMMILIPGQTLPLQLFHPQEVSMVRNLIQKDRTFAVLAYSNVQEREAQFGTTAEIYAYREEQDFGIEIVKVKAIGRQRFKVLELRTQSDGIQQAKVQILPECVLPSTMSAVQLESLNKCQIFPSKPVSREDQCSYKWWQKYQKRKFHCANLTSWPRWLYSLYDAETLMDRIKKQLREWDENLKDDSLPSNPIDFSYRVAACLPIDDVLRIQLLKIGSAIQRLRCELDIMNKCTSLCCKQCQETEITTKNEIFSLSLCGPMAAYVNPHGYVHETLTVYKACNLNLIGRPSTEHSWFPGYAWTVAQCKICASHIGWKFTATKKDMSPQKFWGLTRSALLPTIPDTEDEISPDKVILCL
T1 sequence (Q16531 whole entry partner): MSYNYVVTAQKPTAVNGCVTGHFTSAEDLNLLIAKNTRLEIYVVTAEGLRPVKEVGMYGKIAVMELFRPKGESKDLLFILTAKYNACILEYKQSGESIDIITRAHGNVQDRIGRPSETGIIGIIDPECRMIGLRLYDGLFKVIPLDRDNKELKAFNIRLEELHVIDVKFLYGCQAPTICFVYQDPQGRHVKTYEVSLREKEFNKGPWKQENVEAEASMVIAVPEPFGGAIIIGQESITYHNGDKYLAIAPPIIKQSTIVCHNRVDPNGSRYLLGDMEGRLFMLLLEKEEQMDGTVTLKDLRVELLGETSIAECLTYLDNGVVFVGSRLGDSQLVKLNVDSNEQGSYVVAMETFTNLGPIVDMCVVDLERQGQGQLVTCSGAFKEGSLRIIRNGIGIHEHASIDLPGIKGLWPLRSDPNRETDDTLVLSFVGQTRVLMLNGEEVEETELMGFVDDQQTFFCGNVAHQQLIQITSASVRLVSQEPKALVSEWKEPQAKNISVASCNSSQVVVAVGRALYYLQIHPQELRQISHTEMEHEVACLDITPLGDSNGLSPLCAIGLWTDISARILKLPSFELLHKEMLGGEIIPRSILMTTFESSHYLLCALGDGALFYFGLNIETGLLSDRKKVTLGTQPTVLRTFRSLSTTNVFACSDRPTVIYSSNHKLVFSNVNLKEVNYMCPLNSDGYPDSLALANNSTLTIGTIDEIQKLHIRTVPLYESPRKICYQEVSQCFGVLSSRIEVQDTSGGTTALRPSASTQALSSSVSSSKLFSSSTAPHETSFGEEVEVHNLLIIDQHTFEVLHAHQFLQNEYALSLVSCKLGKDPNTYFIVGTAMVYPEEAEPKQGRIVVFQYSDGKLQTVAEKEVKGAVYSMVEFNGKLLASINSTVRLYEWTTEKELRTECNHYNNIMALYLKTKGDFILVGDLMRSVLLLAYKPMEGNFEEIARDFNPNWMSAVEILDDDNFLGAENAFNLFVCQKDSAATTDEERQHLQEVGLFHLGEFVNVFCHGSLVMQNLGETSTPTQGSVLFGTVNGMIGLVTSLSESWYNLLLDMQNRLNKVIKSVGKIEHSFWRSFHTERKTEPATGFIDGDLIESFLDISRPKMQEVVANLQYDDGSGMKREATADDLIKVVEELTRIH

IKZF3 = biological target: T2, IKZF3 (Homo sapiens, UniProt Q96SW2+Q9UKT9); assay: Western-blot assay of substrate protein degradation in hPBMCs, IKZF3; assay type: cell-based; details: 24 hours of compound treatment, 50 nM and 500 nM tested (concentration behind the class not stated)
T2 construct: endogenous in cells; host or cells: hPBMCs (Milecell Biotechnologies)
T2 sequence (Q9UKT9 whole entry): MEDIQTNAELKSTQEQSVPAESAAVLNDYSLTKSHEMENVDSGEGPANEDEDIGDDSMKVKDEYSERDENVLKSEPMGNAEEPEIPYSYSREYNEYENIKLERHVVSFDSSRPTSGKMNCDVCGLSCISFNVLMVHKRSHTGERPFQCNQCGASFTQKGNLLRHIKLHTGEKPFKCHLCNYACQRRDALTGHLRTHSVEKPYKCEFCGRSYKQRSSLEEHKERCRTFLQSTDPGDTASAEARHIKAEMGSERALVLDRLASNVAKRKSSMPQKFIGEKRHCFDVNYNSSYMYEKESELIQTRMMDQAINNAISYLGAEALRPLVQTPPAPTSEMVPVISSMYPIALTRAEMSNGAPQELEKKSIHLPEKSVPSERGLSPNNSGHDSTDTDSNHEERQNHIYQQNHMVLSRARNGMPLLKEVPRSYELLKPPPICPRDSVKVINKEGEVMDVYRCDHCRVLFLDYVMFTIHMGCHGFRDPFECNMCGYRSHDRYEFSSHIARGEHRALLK
T2 sequence (Q96SW2 whole entry): as the sequence (Q96SW2 whole entry) above
T2 sequence (Q16531 whole entry partner): as the sequence (Q16531 whole entry partner) above

IKZF1 = biological target: T3, IKZF1 (Homo sapiens, UniProt Q13422+Q96SW2); assay: Western-blot assay of substrate protein degradation in hPBMCs, IKZF1; assay type: cell-based; details: 24 hours of compound treatment, 50 nM and 500 nM tested (concentration behind the class not stated)
T3 construct: endogenous in cells; host or cells: hPBMCs (Milecell Biotechnologies)
T3 sequence (Q13422 whole entry): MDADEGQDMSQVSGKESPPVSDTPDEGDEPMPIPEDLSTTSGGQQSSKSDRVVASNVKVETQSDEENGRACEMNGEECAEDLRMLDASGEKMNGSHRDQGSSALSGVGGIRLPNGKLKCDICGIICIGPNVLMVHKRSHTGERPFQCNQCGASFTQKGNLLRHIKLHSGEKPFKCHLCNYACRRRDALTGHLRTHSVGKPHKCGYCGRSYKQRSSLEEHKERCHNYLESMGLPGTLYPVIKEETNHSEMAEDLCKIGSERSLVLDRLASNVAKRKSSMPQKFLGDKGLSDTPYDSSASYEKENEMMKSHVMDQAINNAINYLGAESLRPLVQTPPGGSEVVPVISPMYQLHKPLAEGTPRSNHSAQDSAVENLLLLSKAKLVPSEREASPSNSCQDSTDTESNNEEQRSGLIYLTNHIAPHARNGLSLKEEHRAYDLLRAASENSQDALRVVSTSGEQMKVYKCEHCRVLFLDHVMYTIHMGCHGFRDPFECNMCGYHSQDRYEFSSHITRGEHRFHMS
T3 sequence (Q96SW2 whole entry): as the sequence (Q96SW2 whole entry) above
T3 sequence (Q16531 whole entry partner): as the sequence (Q16531 whole entry partner) above

[1] = tested on: Human acute T lymphocytic leukemia cells (Molt-4); assay: Tumor cell proliferation inhibition (CellTiter-Meiluncell Luminescent Cell Viability Assay), Molt-4; details: MOLT-4, read-out: inhibitory activity (IC50, nM) against tumor cells proliferation, Molt-4
WEE1 = biological target: T4, WEE1 (Homo sapiens, UniProt P30291+Q96SW2); assay: Western-blot assay of substrate protein degradation in hPBMCs, WEE1; assay type: cell-based; details: 24 hours of compound treatment, 50 nM and 500 nM tested (concentration behind the class not stated)
T4 construct: endogenous in cells; host or cells: hPBMCs (Milecell Biotechnologies)
T4 sequence (P30291 whole entry): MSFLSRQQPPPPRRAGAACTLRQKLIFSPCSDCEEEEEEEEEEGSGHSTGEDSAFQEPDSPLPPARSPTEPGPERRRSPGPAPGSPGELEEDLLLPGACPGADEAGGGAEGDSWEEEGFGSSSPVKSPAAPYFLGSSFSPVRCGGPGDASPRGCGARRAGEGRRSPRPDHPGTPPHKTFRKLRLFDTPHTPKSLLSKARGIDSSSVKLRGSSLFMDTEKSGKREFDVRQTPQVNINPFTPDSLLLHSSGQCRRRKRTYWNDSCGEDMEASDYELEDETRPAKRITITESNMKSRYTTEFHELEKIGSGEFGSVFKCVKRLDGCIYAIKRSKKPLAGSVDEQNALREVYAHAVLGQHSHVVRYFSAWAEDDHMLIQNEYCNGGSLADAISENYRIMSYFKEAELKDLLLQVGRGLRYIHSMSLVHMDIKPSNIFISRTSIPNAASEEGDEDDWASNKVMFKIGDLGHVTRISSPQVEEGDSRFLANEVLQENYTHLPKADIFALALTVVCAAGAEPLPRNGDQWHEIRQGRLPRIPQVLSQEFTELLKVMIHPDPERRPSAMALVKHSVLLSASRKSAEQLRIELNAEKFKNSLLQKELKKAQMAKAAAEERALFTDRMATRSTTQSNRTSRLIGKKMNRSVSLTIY
T4 sequence (Q96SW2 whole entry): as the sequence (Q96SW2 whole entry) above
T4 sequence (Q16531 whole entry partner): as the sequence (Q16531 whole entry partner) above

GSPT1 = biological target: T5, GSPT1 (Homo sapiens, UniProt P15170+Q96SW2); assay: Western-blot assay of substrate protein degradation in hPBMCs, GSPT1; assay type: cell-based; details: 24 hours of compound treatment, 50 nM and 500 nM tested (concentration behind the class not stated)
T5 construct: endogenous in cells; host or cells: hPBMCs (Milecell Biotechnologies)

CK1α = biological target: T6, CK1α (Homo sapiens, UniProt P48729+Q96SW2); assay: Western-blot assay of substrate protein degradation in hPBMCs, CK1α; assay type: cell-based; details: 24 hours of compound treatment, 50 nM and 500 nM tested (concentration behind the class not stated)
T6 construct: endogenous in cells; host or cells: hPBMCs (Milecell Biotechnologies)
T6 sequence (P48729 whole entry): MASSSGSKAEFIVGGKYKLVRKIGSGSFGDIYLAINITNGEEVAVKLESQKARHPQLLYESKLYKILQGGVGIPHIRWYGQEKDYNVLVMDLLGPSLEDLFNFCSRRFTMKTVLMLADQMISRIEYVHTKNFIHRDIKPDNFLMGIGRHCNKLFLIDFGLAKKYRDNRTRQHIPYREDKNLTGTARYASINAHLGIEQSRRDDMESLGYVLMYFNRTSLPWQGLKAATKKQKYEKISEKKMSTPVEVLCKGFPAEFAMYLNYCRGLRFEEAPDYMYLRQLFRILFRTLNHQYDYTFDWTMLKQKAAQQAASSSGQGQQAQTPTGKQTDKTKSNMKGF
T6 sequence (Q96SW2 whole entry): as the sequence (Q96SW2 whole entry) above
T6 sequence (Q16531 whole entry partner): as the sequence (Q16531 whole entry partner) above

CCRF-CEM = assay: Tumor cell proliferation inhibition (CellTiter-Meiluncell Luminescent Cell Viability Assay), CCRF-CEM; details: Homo sapiens, read-out: inhibitory activity (IC50, nM) against tumor cells proliferation, CCRF-CEM
[2] = biological target: T7, human Cereblon WT GST-tagged protein (Homo sapiens, UniProt Q96SW2); assay: CRBN-binding affinity by HTRF (CEREBLON BINDING kit); details: HTRF inhibitory activity, CEREBLON BINDING kit; read-out: HTRF IC50
T7 construct: purchased CISBIO 64BDCRBNPEH
T7 sequence (Q96SW2 whole entry): as the sequence (Q96SW2 whole entry) above

SMILES | IC50 (MV-4-11) [nM] | IKZF2 substrate protein remaining % (IKZF2) | IKZF3 substrate protein remaining % (IKZF3) | IKZF 1 substrate protein remaining % (IKZF1) | IC50 [1] [nM] | Weel substrate protein remaining % (WEE1) | GSPT1 substrate protein remaining % (GSPT1) | CK1a substrate protein remaining % (CK1α) | IC50 (CCRF-CEM) [nM] | IC50 [2] [nM]
O=C1CCC(N2C(=O)c3ccc(CN4CC=C(c5cncc(Cl)c5)CC4)cc3C2=O)C(=O)N1 (stereo not drawn) [GT-06611, 5-((5-chloro-3',6'-dihydro-[3,4'-bipyridin]-1'(2'H)-yl)methyl)-2-(2,6-dioxopiperidin-3-yl)isoindoline-1,3-dione] | 100 to 500 | A (0% ≤ substrate protein remaining % ≤ 80%) | A (0% ≤ substrate protein remaining % ≤ 80%) | A (0% ≤ substrate protein remaining % ≤ 80%) | 500 to 1000 | A (0% ≤ substrate protein remaining % ≤ 80%) | A (0% ≤ substrate protein remaining % ≤ 80%) | A (0% ≤ substrate protein remaining % ≤ 80%) | 100 to 500 | –
O=C1CCC(N2C(=O)c3ccc(CN4CC=C(c5ncccc5F)CC4)cc3C2=O)C(=O)N1 (stereo not drawn) [GT-06612, 2-(2,6-dioxopiperidin-3-yl)-5-((3-fluoro-3',6'-dihydro-[2,4'-bipyridin]-1'(2'H)-yl)methyl)isoindoline-1,3-dione] | 500 to 1000 | A (0% ≤ substrate protein remaining % ≤ 80%) | A (0% ≤ substrate protein remaining % ≤ 80%) | A (0% ≤ substrate protein remaining % ≤ 80%) | 500 to 1000 | A (0% ≤ substrate protein remaining % ≤ 80%) | A (0% ≤ substrate protein remaining % ≤ 80%) | A (0% ≤ substrate protein remaining % ≤ 80%) | 500 to 1000 | –
Cc1nc(C2=CCN(Cc3ccc4c(c3)C(=O)N(C3CCC(=O)NC3=O)C4=O)CC2)c2ccsc2n1 (stereo not drawn) [GT-06678, 2-(2,6-dioxopiperidin-3-yl)-5-((4-(2-methylthieno[2,3-d]pyrimidin-4-yl)-3,6-dihydropyridin-1(2H)-yl)methyl)isoindoline-1,3-dione] | 100 to 500 | B (80%< substrate protein remaining %≤ 100%) | A (0% ≤ substrate protein remaining % ≤ 80%) | A (0% ≤ substrate protein remaining % ≤ 80%) | 100 to 500 | A (0% ≤ substrate protein remaining % ≤ 80%) | A (0% ≤ substrate protein remaining % ≤ 80%) | A (0% ≤ substrate protein remaining % ≤ 80%) | 100 to 500 | –
Cc1nc(C2=CCN(Cc3ccc4c(c3)C(=O)N(C3CCC(=O)NC3=O)C4=O)CC2)c2c3c(sc2n1)CCCC3 (stereo not drawn) [GT-06679, 2-(2,6-dioxopiperidin-3-yl)-5-((4-(2-methyl-5,6,7,8-tetrahydrobenzo[4,5]thieno[2,3-d]pyrimidin-4-yl)-3,6-dihydropyridin-1(2H)-yl)methyl)isoindoline-1,3-dione] | 100 to 500 | B (80%< substrate protein remaining %≤ 100%) | A (0% ≤ substrate protein remaining % ≤ 80%) | B (80%< substrate protein remaining %≤ 100%) | – | A (0% ≤ substrate protein remaining % ≤ 80%) | B (80%< substrate protein remaining %≤ 100%) | B (80%< substrate protein remaining %≤ 100%) | – | 1500 to 1900
O=C1CCC(N2C(=O)c3ccc(CN4CC=C(c5ncnc6sc7c(c56)CCC7)CC4)cc3C2=O)C(=O)N1 (stereo not drawn) [GT-06681, 5-((4-(6,7-dihydro-5H-cyclopenta[4,5]thieno[2,3-d]pyrimidin-4-yl)-3,6-dihydropyridin-1(2H)-yl)methyl)-2-(2,6-dioxopiperidin-3-yl)isoindoline-1,3-dione] | 500 to 1000 | A (0% ≤ substrate protein remaining % ≤ 80%) | A (0% ≤ substrate protein remaining % ≤ 80%) | A (0% ≤ substrate protein remaining % ≤ 80%) | – | A (0% ≤ substrate protein remaining % ≤ 80%) | A (0% ≤ substrate protein remaining % ≤ 80%) | B (80%< substrate protein remaining %≤ 100%) | – | 1500 to 1900
O=C1CCC(N2C(=O)c3ccc(CN4CC=C(c5ncc6ccsc6n5)CC4)cc3C2=O)C(=O)N1 (stereo not drawn) [GT-06683, 2-(2,6-dioxopiperidin-3-yl)-5-((4-(thieno[2,3-d]pyrimidin-2-yl)-3,6-dihydropyridin-1(2H)-yl)methyl)isoindoline-1,3-dione] | 100 to 500 | A (0% ≤ substrate protein remaining % ≤ 80%) | A (0% ≤ substrate protein remaining % ≤ 80%) | A (0% ≤ substrate protein remaining % ≤ 80%) | 500 to 1000 | A (0% ≤ substrate protein remaining % ≤ 80%) | A (0% ≤ substrate protein remaining % ≤ 80%) | B (80%< substrate protein remaining %≤ 100%) | 500 to 1000 | –
O=C1CCC(N2C(=O)c3ccc(CN4C5CCC4CN(c4cccc(Cl)c4Cl)C5)cc3C2=O)C(=O)N1 (stereo not drawn) [GT-06694, 5-((3-(2,3-dichlorophenyl)-3,8-diazabicyclo[3.2.1]octan-8-yl)methyl)-2-(2,6-dioxopiperidin-3-yl)isoindoline-1,3-dione] | 100 to 500 | A (0% ≤ substrate protein remaining % ≤ 80%) | B (80%< substrate protein remaining %≤ 100%) | B (80%< substrate protein remaining %≤ 100%) | 500 to 1000 | A (0% ≤ substrate protein remaining % ≤ 80%) | A (0% ≤ substrate protein remaining % ≤ 80%) | B (80%< substrate protein remaining %≤ 100%) | 500 to 1000 | –
O=C1CCC(N2C(=O)c3ccc(CN4CC=C(c5c[nH]c6ncccc56)CC4)cc3C2=O)C(=O)N1 (stereo not drawn) [GT-06706, 5-((4-(1H-pyrrolo[2,3-b]pyridin-3-yl)-3,6-dihydropyridin-1(2H)-yl)methyl)-2-(2,6-dioxopiperidin-3-yl)isoindoline-1,3-dione] | 100 to 500 | A (0% ≤ substrate protein remaining % ≤ 80%) | A (0% ≤ substrate protein remaining % ≤ 80%) | A (0% ≤ substrate protein remaining % ≤ 80%) | 500 to 1000 | A (0% ≤ substrate protein remaining % ≤ 80%) | A (0% ≤ substrate protein remaining % ≤ 80%) | A (0% ≤ substrate protein remaining % ≤ 80%) | 500 to 1000 | –
O=C1CCC(N2C(=O)c3ccc(CN4CCN(c5nc(N6CCOCC6)c6sccc6n5)CC4)cc3C2=O)C(=O)N1 (stereo not drawn) [GT-06718, 2-(2,6-dioxopiperidin-3-yl)-5-((4-(4-morpholinothieno[3,2-d]pyrimidin-2-yl)piperazin-1-yl)methyl)isoindoline-1,3-dione] | 100 to 500 | B (80%< substrate protein remaining %≤ 100%) | B (80%< substrate protein remaining %≤ 100%) | B (80%< substrate protein remaining %≤ 100%) | – | B (80%< substrate protein remaining %≤ 100%) | A (0% ≤ substrate protein remaining % ≤ 80%) | B (80%< substrate protein remaining %≤ 100%) | – | 1000 to 1500
